Patent publication US9526915B2, “Methods for regulating cell mitosis by inhibiting serine/threonine phosphatase” (priority 2008, dated 2016)
“Also recorded” adds a separate entry of the source.

Tests used:
U87MG xenografts = experiment: U87MG s.c. xenografts in SCID mice, compound 102 and TMZ; assay type: in vivo
Protocol: (§1) 5×10^6 U87MG cells were inoculated s.c. into each flank of 20 SCID mice. When the xenografts were 0.5+/−0.1 cm (day 0), 5 animals each received i.p. vehicle alone days 1-12 (50% DMSO/H20); compound 102 alone at 1.5 mg/kg days 1-3, 5-7, & 9-11; TMZ alone at 80 mg/kg days 4, 8, 12; or both drugs at the same doses and schedules. If xenografts reached 1800 mm^3, animals were sacrificed. […] B, Survival curve combining the data from the study shown in FIG. 12A, with a second identical study involving a total of 10 animals with two xenografts each. Disease-free survival was defined as no recurrence of either xenografts. […] As in 12A, except that xenografts of SH-SY5Y cells were implanted in one flank only and animals were treated with one additional cycle of drugs, i.e., compound 102 on days 13-15, TMZ, on day 16, and compound 102 plus TMZ on the same schedules. […] E, Western blots of U87 cells in culture 24 hours after exposure to compound 102 at 2.5 uM, TMZ at 25 uM or DOX at 2 uM, and compound 102 plus TMZ or DOX. F, Western blots of U373 cells 24 hours after exposure to compound 102 at 2.5 uM, doxorubicin at 2 uM, and both drugs. G, Western blots of U373 cells 24 hours after exposure to TMZ at 25 uM, okadaic acid at 2 nM, and both drugs.
To determine the impact of altering DNA-damage defense mechanisms by inhibiting PP2A on the efficacy of cytotoxic chemotherapy, the effects of compound 102 combined with TMZ, a non-specific DNA-methylating drug, routinely used for the palliative treatment of GBM patients (Prados et al, 2008), were studied. SCID mice bearing s.c. xenografts of either the GBM line U87MG or the neuroblastoma line SH-SY5Y were treated with vehicle alone, compound 102 alone, TMZ alone, or both drugs at the same doses and schedules as when given alone.

U87MG cells [1] = experiment: Cell cycle distribution of U87MG cells by FACS; assay type: cell-based, human; conditions: 48 hours
Protocol: Cells in unsynchronized logarithmic growth were exposed to vehicle or drug and adherent cells and cells in the media were collected. Harvested cells were fixed with 70% cold ethanol for 20 min at −20 degrees, washed with PBS, and stained with 10 ug/ml of PI and 1 ug/ml RNAse in TBS for 30 minutes and analyzed by FACS. A, Flow cytometry profiles of U87 cells after exposures to DMSO only, compound 102 only, 5 uM; TMZ only, 25 uM; compound 102 with TMZ combination, doxorubicin only, 2.0 uM and compound 102 with doxorubicin combination. B, Flow cytometry profiles of U373 cells. Exposures as in A, and C, Schema of proposed mechanisms of compound 102 enhancement of cancer chemotherapy.
We analyzed cell cycle patterns of U87MG and U373 cells 48 hours after exposure to TMZ or DOX alone and in combination with compound 102.

U87MG cells [2] = experiment: Cellular and molecular changes in U87MG cells (Western blots, IFS); assay type: cell-based, human
Protocol: D, Western blots of U87 lysates: TCTP, pPlk (Tre-210), total Plk, and β-actin. E, IFS of TCTP in U87 cells, F, Western blots p53 (ser-15), pMDM2 (ser-166), and β-actin and G, IFS of p53 (ser-15).
as §1
TCTP is an abundant, highly conserved, multifunctional protein that binds to and stabilizes microtubules before and after mitosis and also exerts potent anti-apoptotic activity (Bommer and Thiele, 2004; Yarm, 2002; Susini et al, 2008) (FIG. 11E).
[…] Akt-1 activation, however, may be anti- or proapoptotic depending on the context of cell signaling (Andrabi et al, 2007).
The effects of compound 102, TMZ, doxorubicin (DOX), a widely used anti-cancer drug that disrupts DNA replication, compound 102 plus TMZ, and compound 102 plus DOX on the amount of pAkt, p53 and MDM2 in U87MG, a cell line with wild-type p53, and in U373, a cell line with mutant p53 (Short et al, 2007) were assessed by Western blots.

[3] = test system: DAOY medulloblastoma cells; experiment: DAOY medulloblastoma s.c. xenografts in SCID mice; assay type: in vivo; conditions: treatment from day 6, by day 23
Protocol: DAOY medulloblastoma cells were implanted subcutaneously into the flanks of SCID mice. On day 6, mice were divided into 3 groups, one group receiving Compound 100, one group receiving Compound 102, and one group receiving vehicle alone. The subcutaneous tumor masses were measured on day 6, day 13, day 18, and on day 23 when all animals were sacrificed. […] In this model DAOY cells, when untreated, reached their maximum growth about 2 weeks after implantation with slow regression thereafterwards.

U87 cells = experiment: U87 GBM cell growth in vitro, viable cells counted; assay type: cell-based; conditions: Homo sapiens, U-87 MG, read-out: IC50 inhibition of GBM cell growth
Protocol: FIG. 6: Effect of Compound 102 on U87 Cells In Vitro at 1 uM; 2 uM; 5 uM; and 10 uM.
Viable cells were counted (mean and s.d.; n=3; Coulter particle counter).
Recent work led to the discovery that treatment with the compound, compound 100, and several homologs inhibit the serine/threonine protein phosphatases PP2A (FIG. 1). Compound 102 inhibits PP2A (IC50=˜0.4 μM) more potently than PP1 (IC50=˜80 μM) (FIG. 2). Associated with their inhibition of PP2A, Compound 100 and homologs inhibit a variety of human cancer cell types growing in cell culture and growing in vivo as xenografts implanted subcutaneously in SCID mice (FIG. 3 and FIG. 4). […] Death of these cancer cells is associated with profound disruption of microtubular structures. Such patterns of disordered microtubules during mitosis have been noted after exposure of cancer cells to spindle toxins include such vincristine, vinblastine, taxol, taxotere, ionizing radiation, and DNA damaging agents including anthracyclines and the platinum based compounds. The morphologic appearance of cells displaying these characteristics has been called the mitotic catastrophe phenotype (Castedo et al 2004).

U373 cells = experiment: Western blots of U373 cells; assay type: cell-based, human; conditions: U373 (mutant p53), 24 hours
Protocol: as §1

NB xenografts = experiment: Histologic examination of xenografts 24 hours after single i.p. injection; assay type: in vivo, SCID mice; conditions: compound 102 1.5 mg/kg, TMZ 80 mg/kg
SH-SY5Y xenografts = experiment: SH-SY5Y neuroblastoma s.c. xenografts in SCID mice, compound 102 and TMZ; assay type: in vivo; conditions: as U87MG plus one additional cycle; followed 7 weeks
Protocol: 5×10^6 U87MG cells were inoculated s.c. into each flank of 20 SCID mice. When the xenografts were 0.5+/−0.1 cm (day 0), 5 animals each received i.p. vehicle alone days 1-12 (50% DMSO/H20); compound 102 alone at 1.5 mg/kg days 1-3, 5-7, & 9-11; TMZ alone at 80 mg/kg days 4, 8, 12; or both drugs at the same doses and schedules. If xenografts reached 1800 mm^3, animals were sacrificed. […] B, Survival curve combining the data from the study shown in FIG. 12A, with a second identical study involving a total of 10 animals with two xenografts each. Disease-free survival was defined as no recurrence of either xenografts. […] As in 12A, except that xenografts of SH-SY5Y cells were implanted in one flank only and animals were treated with one additional cycle of drugs, i.e., compound 102 on days 13-15, TMZ, on day 16, and compound 102 plus TMZ on the same schedules. […] E, Western blots of U87 cells in culture 24 hours after exposure to compound 102 at 2.5 uM, TMZ at 25 uM or DOX at 2 uM, and compound 102 plus TMZ or DOX. F, Western blots of U373 cells 24 hours after exposure to compound 102 at 2.5 uM, doxorubicin at 2 uM, and both drugs. G, Western blots of U373 cells 24 hours after exposure to TMZ at 25 uM, okadaic acid at 2 nM, and both drugs. […]

[4] = U87MG, 24 hours, compound 102 2.5 uM, TMZ 25 uM, DOX 2 uM

In the case of `CC(C)(C)OC(=O)N1CCN(C(=O)C2C(C(=O)O)[C@H]3CC[C@@H]2O3)CC1` (stereo partly drawn) [Compound 102], the U87MG xenograft growth/regression (U87MG xenografts; compound 102 1.5 mg/kg i.p. days 1-3, 5-7, 9-11, TMZ 80 mg/kg days 4, 8, 12) is reported as “minimally delayed growth; also recorded: slowed growth”, the “time of sacrifice (xenografts reached 1800 mm^3)” value (U87MG xenografts; same doses and schedules) is reported as 4-5 week and the G1 phase cells (U87MG cells [1]; compound 102 5 uM, TMZ 25 uM, doxorubicin 2.0 uM) is reported as “decreased”. The G2/M phase cells (U87MG cells [1]; same concentrations) was “prominently increased”, the S phase cells (U87MG cells [1]; same concentrations) was “modestly increased” and the “intracellular levels of p53 by immunofluorescence staining” value (U87MG cells [2]; 24 hour, compound 102 2.5 uM, TMZ 25 uM) was “reduction”. For the same molecule, the TCTP (U87MG cells [2]; U87MG, 2.5 uM, 24 hour) was “marked decrease”, the “microtubule and mitotic morphology” value (U87MG cells [2]; U87MG, 2.5 uM, 24 hour) was “disordered microtubules and abnormal mitotic figures” and the pPlk-1 (U87MG cells [2]; U87MG, 2.5 uM, 24 hour) was “increased”. The “phosphorylated MDM2” value (U87MG cells [2]; U87MG, 2.5 uM, 24 hour) was “increased”, the MDM2 (U87MG cells [2]; [4]) was “increased” and the p53 (U87MG cells [2]; [4]) was “decreased; also recorded: eliminated”. For the same molecule, the pAkt-1 (U87MG cells [2]; [4]) was “increased”, the “DAOY subcutaneous tumor mass” value [3] was “marked regression” and the IC50 (U87 cells) was ~4 µM. For the same molecule, the “molecular changes in pAkt-1, p53, and MDM2 compared with U87MG” value (U373 cells) was “same molecular changes”, the “cells with pyknotic nuclei” value (NB xenografts) was 50 % of cells and the “NB (SH-SY5Y) xenograft growth” value (SH-SY5Y xenografts) was “completely suppressed growth for 2 weeks; also recorded: no growth until week 3”.
